Series [1] is described as follows: Particle size of micronized materials by HELOS laser diffraction. Conditions: jet-milled micronized material. The format is physicochemical. Here is the method:
Micronization of the drug and lactose were performed in-house using a jet-mill (Micron Master, The Jet Pulverizer Co., Inc, Moorestown, N.J.). […] Particle size measurements of the micronized materials were performed using a HELOS® (Sympatec Inc., Clausthal-Zellerfeld, Germany) laser diffraction system.

For series [2] the following is noted: cited from earlier work.
The conditions of series [3]: cited from earlier work. This is another data set of the same source.
A short description of series [4]: Specific surface area of additional functional excipients. Format: physicochemical.

Read-outs that look alike come from different tables or passages of the source.

For the molecule `C[C@@H]1C[C@H]2[C@@H]3CCC4=CC(=O)C=C[C@]4(C)[C@@]3(Cl)[C@@H](O)C[C@]2(C)[C@@]1(OC(=O)c1ccco1)C(=O)CCl` [Mometasone furoate, 9,21-Dichloro-11(beta), 17-dihydroxy-16(alpha)-methylpregna-1,4-diene-3,20-dione 17-(2 furoate)], the “average particle size (DV50)” value in series [1] was determined as 1.1 μm. Besides, the “partition coefficient between octanol and water” value in series [2] is listed as “greater than 5000”. Besides, the solubility result in series [3] (in acetone) is on record as “soluble”; in series [3] (in chloroform), “soluble”; in series [3] (in ethanol), “slightly soluble”; in series [3] (in isopropanol), “slightly soluble”; in series [3] (in methanol), “slightly soluble”; in series [3] (in tetrahydrofuran), “freely soluble”. Besides, the solubility entry in series [3] (in water) is given as “practically insoluble”.

Consider `OC[C@H]1O[C@@H](O[C@H]2[C@H](O)[C@@H](O)[C@@H](O)O[C@@H]2CO)[C@H](O)[C@@H](O)[C@H]1O` [micronized lactose, lactose anhydrous, NF], for which, in series [1], the “average particle size (DV50)” value is listed as 2.0 μm.

Turning to magnesium stearate, the specific surface area in series [4] came to 8 m^2/g.
